Data set [1] relates to convulsivant effects of strychnine. Briefly: Anti-Strychnine Activity (oral, mice). As to conditions: for ED50: Mus musculus, po, read-out: Inhibition of the convulsivant effects of Strychinine ED50. Type of data set: in vivo. The protocol:
(§1) The anticonvulsivant activity of the derivatives was assessed with respect to two chemical agents: strychnine and bicuculline, and with respect to electric shock. In these various tests, the products were compared with the minaprine described in French Patent 2 141 697 mentioned hereinabove.
The products are administered by the oral route 30 minutes before the strychnine 0.9 mg/kg i.p.. The occurrence of tetanic crises as well as mortality are noted during the 60 minutes following administration of strychnine.
(§2) In the three cases, the products are administered in a range of doses to batches of 10 mice per dose.

In data set [2] the test system is convulsivant effects of electric shock. Briefly: Anti-Electric Shock Activity (oral, mice). Type of data set: in vivo. As to conditions: for ED50: Mus musculus, po, read-out: Inhibition of the convulsivant effects of electric shock ED50; for anti-convulsivant activity with respect to electric shock (in words): oral. How it is done:
The anticonvulsivant activity of the derivatives was assessed with respect to two chemical agents: strychnine and bicuculline, and with respect to electric shock.
Anti-Electric Shock Activity
The electric shock was given to the animal via corneal electrodes. […] The animals not presenting extension of the rear limbs were considered as protected.
as §2

For data set [3], the system named is convulsivant effects of bicuculline. Briefly: Anti-Bicuculline Activity (oral, mice). Type of data set: in vivo. As to conditions: for ED50: Mus musculus, read-out: Inhibition of the convulsivant effects of Bicuculline ED50. The protocol:
as §1
Anti-Bicuculline Activity
The products are administered by the oral route 30 minutes before the bicuculline 0.9 mg/kg i.v.. The occurrence of clonic, tonic crises as well as mortality are noted during the 60 minutes following administration of bicuculline.
as §2

Data set [4] in a line: Acute toxicity, mortality within 24 hours (oral, mice). As to conditions: mouse, in vivo. The class given is in vivo.
In the next data set the test system is mice. The description is as above. The class given is in vivo. As to conditions: for toxic effect at the dose of 500 mg/kg p.os (in words): mouse, in vivo.
For data set [5] the following is noted: per os; cited from earlier work.
Where [6] appears, read: mice, per os, 30 minutes before electric shock (12.5 volts for 0.5 seconds), corneal electrodes, 10 mice per dose.
The mark [7] stands for this setting: 30 minutes before bicuculline 0.9 mg/kg i.v., 10 mice per dose.
Where [8] appears, read: mice, oral, 250 mg/kg, 24 hours, read-out: p. cent of mortality at 250 mg/kg.
Setting [9] is: mice, oral, 500 mg/kg, 24 hours, read-out: p. cent of mortality at 500 mg/kg.
The mark [10] stands for this setting: mice, oral, 1000 mg/kg, 24 hours, read-out: p. cent of mortality at 1000 mg/kg.

Structures can show the parent of a compound that is named as a salt. Where two headings read alike, the source gives them in different places.

As to `Cc1cc(-c2ccccc2)nnc1NCCO` [CM 30094, 3-(2-HYDROXY ETHYLAMINO)4-METHYL 6-PHENYL PYRIDAZINE], the median effective dose (ED50) in data set [1] turned out to be 119 mg/kg; in data set [2] (setting [6]), 107 mg/kg; in data set [3] (setting [7]), 286 mg/kg. Moreover, the mortality at 24 h in data set [4] (setting [8]), in data set [4] (setting [9]) and in data set [4] (setting [10]) was 0% in each case.

Consider `Cc1cc(-c2ccccc2)nnc1NCC(C)O` (stereo not shown) [CM 30096], for which the median effective dose (ED50) in data set [1] worked out at 92 mg/kg; in data set [2] (setting [6]), 209 mg/kg; in data set [3] (setting [7]) it was 175 mg/kg. For the same molecule, the “anti-convulsivant activity with respect to strychnine (in words)” value in data set [1] (mice, oral) is listed as “particularly powerful”. Besides, the “anti-convulsivant activity with respect to electric shock (in words)” value in data set [2] (mice) is recorded as “still considerable”. For the same molecule, the “anti-convulsivant activity with respect to bicuculline (in words)” value in data set [3] is listed as “still considerable”. Also, in the data set with mice, the “toxic effect at the dose of 500 mg/kg p.os (in words)” value was “have a toxic effect”. The mortality at 24 h was 0% in data set [4] (po, 250 mg/kg); 20% in data set [4] (po, 500 mg/kg); 100% in data set [4] (po, 1000 mg/kg).

Consider `Cc1cc(-c2ccccc2)nnc1NCCCCO` [CM 30097], for which the results for the mortality at 24 h in data set [4] (setting [8]), in data set [4] (setting [9]) and in data set [4] (setting [10]) were 0%, 0% and 100%, respectively.

Regarding `COCCNc1nnc(-c2ccccc2)cc1C` [CM 30310, 3-(2-METHOXY ETHYLAMINO)4-METHYL 6-PHENYL PYRIDAZINE], the ED50 in data set [1] was 158 mg/kg; in data set [2] (setting [6]) it was 78 mg/kg; in data set [3] (setting [7]), 136 mg/kg. Also, the “anti-convulsivant activity with respect to strychnine (in words)” value in data set [1] (mice, oral) is recorded as “particularly powerful”. The mortality at 24 h turned out to be 0% in data set [4] (setting [8]), 0% in data set [4] (setting [9]) and 100% in data set [4] (setting [10]).

Take `OCCNc1nnc(-c2ccccc2)cc1-c1ccccc1` [CM 30339]: the results for the ED50 in data set [1], in data set [2] (setting [6]) and in data set [3] (setting [7]) were 145 mg/kg, around 200 mg/kg and 86 mg/kg, respectively. Besides, the “anti-convulsivant activity with respect to strychnine (in words)” value in data set [1] (mice, oral) is reported as “particularly powerful”. In the data set on mice, the “toxic effect at the dose of 500 mg/kg p.os (in words)” value is on record as “have a toxic effect”. In addition, the mortality at 24 h worked out at 0% in data set [4] (po, 250 mg/kg); 60% in data set [4] (po, 500 mg/kg); 60% in data set [4] (po, 1000 mg/kg).

As for `COCCNc1nnc(-c2ccccc2)cc1-c1ccccc1` [CM 30340, 3-(2-methoxyethylamino)4,6-diphenyl pyridazine], the results for the mortality at 24 h in data set [4] (setting [8]), in data set [4] (setting [9]) and in data set [4] (setting [10]) were 0%, 0% and 20%, respectively.

Regarding `CCCCNc1nnc(-c2ccccc2)cc1C` [CM 30434, 3-BUTYLAMINO 4-METHYL 6-PHENYL PYRIDAZINE], the mortality at 24 h in data set [4] (setting [8]), in data set [4] (setting [9]) and in data set [4] (setting [10]) was 0% throughout.

Regarding `Cc1cc(-c2ccccc2)nnc1NCCN1CCOCC1` [Minaprine, reference compound], the “anti-convulsivant activity with respect to strychnine (in words)” value in data set [1] (mice, oral) was “totally inactive”. Besides, in data set [1] (mice, oral, 30 minutes before strychnine 0.9 mg/kg i.p., 10 mice per dose), the “Inhibition of the convulsivant effects of Strychinine ED50” value was “Inactive”. In data set [5], the “dose at which the product shows itself to be convulsivant” value is reported as “greater than 100 mg/kg”. The “anti-convulsivant activity with respect to electric shock (in words)” value in data set [2] (mice) is “totally inactive”. Besides, the “Inhibition of the convulsivant effects of electric shock ED50” value in data set [2] (setting [6]) is “Inactive”. In data set [3], the “anti-convulsivant activity with respect to bicuculline (in words)” value is “totally inactive”. For the same molecule, the “Inhibition of the convulsivant effects of Bicuculline ED50” value in data set [3] (setting [7]) is given as “Inactive”. In addition, the “toxicity, overall (in words)” value in the data set on mice (mice, p.os) is “much greater toxic effect”. Also, the mortality in data set [4] (po, 100 mg/kg) came to 20%. In addition, the mortality at 24 h in data set [4] (po, 250 mg/kg) is 100%; in data set [4] (po, 500 mg/kg) it was 100%; in data set [4] (po, 1000 mg/kg), 100%.

In the case of `CCCC(CCC)C(=O)O` [Sodium Valproate, sodium salt of valproic acid, reference compound], the ED50 was 480 mg/kg in data set [1], 290 mg/kg in data set [2] and 234 mg/kg in data set [3] (setting [7]). Further, the “anti-convulsivant activity with respect to strychnine (in words)” value in data set [1] (mice, oral) is “effective dose 50 most often greater than that of the products of the invention”. The “anti-convulsivant activity with respect to electric shock (in words)” value in data set [2] (mice) is given as “effective dose 50 most often greater than that of the products of the invention”. Also, the “anti-convulsivant activity with respect to bicuculline (in words)” value in data set [3] is “effective dose 50 most often greater than that of the products of the invention”.

(Values after patent US4710499A, “New derivatives of pyridazine active on the central nervous system” (priority 1981, dated 1987).)
